Measured values reported in ChEMBL document CHEMBL4118101 (Bioorg Med Chem, 2018).
In brackets after ≈: the same amount, converted by molar mass. Activity calls are given as the source filed them. The rule behind the calls is not given here.

How the values were obtained:
BEAS-2B = test: Cytotoxicity against human BEAS2B cells up to 7.8 ug/ml after 24 hrs by resazurin based assay; assay type: cell-based
[1] = Hemolytic activity in mouse RBC at 3.9 ug/ml after 1 hr relative to control; assay type: ADME, cell-based, Erythrocyte; conditions: mouse red blood cells (erythrocytes), read-out: Activity
Candida albicans [2] = test: Inhibition of Candida albicans ATCC 10231 ERG11 assessed as eburicol composition of total sterols at 0.48 ug/ml incubated for 10 mins followed by saponification for 2 hrs by GC-MS method relative to control; design: scale not given: the % may be the effect or the level left
Cryptococcus neoformans [3] = test: Antifungal activity against Cryptococcus neoformans isolate CN3 measured after 48 hrs by CLSI M27-A3 protocol based method; assay type: functional; conditions: Cryptococcus neoformans, isolate CN3, 48 h; read-out: MIC
Candida parapsilosis [4] = test: Antifungal activity against Candida parapsilosis isolate CP1 measured after 48 hrs by CLSI M27-A3 protocol based method; assay type: functional; conditions: Lodderomyces parapsilosis, isolate CP1, 48 h
Aspergillus terreus = test: Antifungal activity against Aspergillus terreus ATCC MYA-3633 measured after 48 hrs by CLSI M38-A2 protocol based method; assay type: functional; conditions: ATCC MYA-3633, 48 h
Candida parapsilosis [5] = test: Antifungal activity against Candida parapsilosis ATCC 22019 measured after 48 hrs by CLSI M27-A3 protocol based method; assay type: functional; conditions: Lodderomyces parapsilosis, ATCC 22019, 48 h
Candida albicans [6] = test: Inhibition of Candida albicans ATCC 10231 ERG11 assessed as lanosterol composition of total sterols at 0.48 ug/ml incubated for 10 mins followed by saponification for 2 hrs by GC-MS method relative to control; design: scale not given: the % may be the effect or the level left
Nakaseomyces glabratus [7] = test: Antifungal activity against Candida glabrata ATCC 2001 measured after 48 hrs by CLSI M27-A3 protocol based method; assay type: functional, CBS 138; conditions: Nakaseomyces glabratus, CBS 138, 48 h; read-out: MIC
Candida parapsilosis [8] = test: Antifungal activity against Candida parapsilosis ATCC 22019 measured after 48 hrs in presence of 10% FBS by CLSI M27-A3 protocol based method; assay type: functional; conditions: Lodderomyces parapsilosis, ATCC 22019, 48 h
Aspergillus nidulans [9] = test: Antifungal activity against Aspergillus nidulans ATCC 38163 measured after 48 hrs by CLSI M38-A2 protocol based method; assay type: functional; conditions: ATCC 38163, 48 h
[10] = Hemolytic activity in mouse RBC at 0.48 ug/ml after 1 hr relative to control; assay type: ADME, cell-based, Erythrocyte; conditions: mouse red blood cells (erythrocytes), read-out: Activity
Candida albicans [11] = test: Antifungal activity against Candida albicans ATCC 10231 measured after 48 hrs by CLSI M27-A3 protocol based method; assay type: functional; conditions: ATCC 10231, 48 h
Cryptococcus neoformans [12] = test: Antifungal activity against Cryptococcus neoformans isolate CN1 measured after 48 hrs by CLSI M27-A3 protocol based method; assay type: functional; conditions: isolate CN1, 48 h
[13] = Hemolytic activity in mouse RBC at 62.5 ug/ml after 1 hr relative to control; assay type: ADME, cell-based, Erythrocyte; conditions: mouse red blood cells (erythrocytes), read-out: Activity
Nakaseomyces glabratus [14] = test: Antifungal activity against Candida glabrata isolate CG3 measured after 48 hrs by CLSI M27-A3 protocol based method; assay type: functional; conditions: Nakaseomyces glabratus, 48 h; read-out: MIC
Candida albicans [15] = test: Antifungal activity against fluconazole/ITC-resistant Candida albicans ATCC MYA-1237 measured after 48 hrs by CLSI M27-A3 protocol based method; assay type: functional; conditions: Candida albicans, ATCC MYA-1237, 48 h; read-out: MIC
Candida albicans [16] = test: Antifungal activity against Candida albicans ATCC 10231 measured after 48 hrs in presence of 10% FBS by CLSI M27-A3 protocol based method; assay type: functional; conditions: Candida albicans, ATCC 10231, 48 h
Aspergillus nidulans [17] = test: Antifungal activity against Aspergillus nidulans ATCC 38163 measured after 48 hrs in presence of 10% FBS by CLSI M38-A2 protocol based method; assay type: functional; conditions: ATCC 38163, 48 h
Candida albicans [18] = test: Antifungal activity against fluconazole/ITC-resistant Candida albicans ATCC 90819 measured after 48 hrs by CLSI M27-A3 protocol based method; assay type: functional; conditions: Candida albicans, ATCC 90819, 48 h; read-out: MIC
Nakaseomyces glabratus [19] = test: Antifungal activity against Candida glabrata isolate CG1 measured after 48 hrs by CLSI M27-A3 protocol based method; assay type: functional; conditions: Nakaseomyces glabratus, 48 h; read-out: MIC
Aspergillus flavus = test: Antifungal activity against Aspergillus flavus ATCC MYA-3631 measured after 48 hrs by CLSI M38-A2 protocol based method; assay type: functional; conditions: ATCC MYA-3631, 48 h
Candida parapsilosis [20] = test: Antifungal activity against Candida parapsilosis isolate CP2 measured after 48 hrs by CLSI M27-A3 protocol based method; assay type: functional; conditions: Lodderomyces parapsilosis, isolate CP2, 48 h
Candida albicans [21] = test: Antifungal activity against fluconazole/ITC-susceptible Candida albicans ATCC MYA-2876 measured after 48 hrs by CLSI M27-A3 protocol based method; assay type: functional; conditions: Candida albicans, ATCC MYA-2876, 48 h
Pichia kudriavzevii = test: Antifungal activity against Candida krusei ATCC 6258 measured after 48 hrs by CLSI M27-A3 protocol based method; assay type: functional; conditions: Pichia kudriavzevii, ATCC 6258, 48 h
Cryptococcus neoformans [22] = test: Antifungal activity against Cryptococcus neoformans isolate CN2 measured after 48 hrs by CLSI M27-A3 protocol based method; assay type: functional; conditions: Cryptococcus neoformans, isolate CN2, 48 h; read-out: MIC
Candida parapsilosis [23] = test: Antifungal activity against Candida parapsilosis isolate CP3 measured after 48 hrs by CLSI M27-A3 protocol based method; assay type: functional; conditions: Lodderomyces parapsilosis, isolate CP3, 48 h
[24] = Cytotoxicity against HEK293 cells assessed as cell survival at 3.9 ug/ml after 24 hrs by resazurin based assay relative to control; conditions: human, read-out: Survival
Aspergillus nidulans [25] = test: Ratio of MIC for Aspergillus nidulans ATCC 38163 in presence of 10% FBS to MIC for Aspergillus nidulans ATCC 38163 in absence of 10% FBS; assay type: functional
[26] = Hemolytic activity in mouse RBC at 31.3 ug/ml after 1 hr relative to control; assay type: ADME, cell-based, Erythrocyte; conditions: mouse red blood cells (erythrocytes), at 31.3 µg/mL, read-out: Activity
[27] = Hemolytic activity in mouse RBC at 1.95 ug/ml after 1 hr relative to control; assay type: ADME, cell-based, Erythrocyte; conditions: mouse red blood cells (erythrocytes), at 1.95 µg/mL, read-out: Activity
[28] = Hemolytic activity in mouse RBC at […] ug/ml after 1 hr relative to control; assay type: ADME, cell-based, Erythrocyte; conditions: mouse red blood cells (erythrocytes), read-out: Activity
Nakaseomyces glabratus [29] = test: Antifungal activity against Candida glabrata isolate CG2 measured after 48 hrs by CLSI M27-A3 protocol based method; assay type: functional; conditions: Nakaseomyces glabratus, isolate CG2, 48 h; read-out: MIC
Candida albicans [30] = test: Induction of membrane permeabilization in Candida albicans ATCC 10231 assessed as membrane disruption at 4 times MIC after 1 hr by propidium iodide staining based fluorescence microscopy; assay type: functional, organism-based
Candida albicans [31] = test: Inhibition of Candida albicans ATCC 10231 ERG11 assessed as ergosterol composition of total sterols at 0.48 ug/ml incubated for 10 mins followed by saponification for 2 hrs by GC-MS method (reference value: 100%); design: scale not given: the % may be the effect or the level left
A549 = test: Cytotoxicity against human A549 cells up to 7.8 ug/ml after 24 hrs by resazurin based assay; assay type: cell-based; conditions: a549, 24 h
Candida albicans [32] = test: Ratio of MIC for Candida albicans ATCC 10231 in presence of 10% FBS to MIC for Candida albicans ATCC 10231 in absence of 10% FBS; assay type: functional
[33] = Hemolytic activity in mouse RBC at 7.8 ug/ml after 1 hr relative to control; assay type: ADME, cell-based, Erythrocyte; conditions: mouse red blood cells (erythrocytes), read-out: Activity
Candida albicans [34] = test: Inhibition of Candida albicans ATCC 10231 ERG11 assessed as 14alphamethyl ergosta-8,24(28)-diene-3beta,6alpha-diol composition of total sterols at 0.48 ug/ml incubated for 10 mins followed by saponification for 2 hrs by GC-MS method relative to control; design: scale not given: the % may be the effect or the level left

For `CCCCCCCCCCCCNCC(O)(Cn1cncn1)c1ccc(F)cc1F` (stereo not given), the Activity (BEAS-2B) was “Non-Toxic”, the hemolysis at 1 h, 3.9 ug/ml [1] was 8% and the Activity (Candida albicans [2]) was 0.57%. The MIC (Cryptococcus neoformans [3]) was 1.1 µM (≈ 0.465 µg/mL), the MIC (Candida parapsilosis [4]) was 0.14 µM (≈ 0.0592 µg/mL) and the MIC (Aspergillus terreus) was 9.2 µM (≈ 3.89 µg/mL). For the same compound, the MIC (Candida parapsilosis [5]) was 1.1 µM (≈ 0.465 µg/mL), the Activity (Candida albicans [6]) was 10% and the MIC (Nakaseomyces glabratus [7]) was 2.3 µM (≈ 0.972 µg/mL). For the same compound, the MIC (Candida parapsilosis [8]) was 0.24 µg/mL, the MIC (Aspergillus nidulans [9]) was 4.6 µM (≈ 1.94 µg/mL) and the hemolysis at 1 h, 0.48 ug/ml [10] was 2%. The MIC (Candida albicans [11]) was 2.3 µM (≈ 0.972 µg/mL), the MIC (Cryptococcus neoformans [12]) was 0.57 µM (≈ 0.241 µg/mL) and the hemolysis at 1 h, 62.5 ug/ml [13] was 98%. It also gave an MIC (Nakaseomyces glabratus [14]) of 4.6 µM (≈ 1.94 µg/mL), an MIC (Candida albicans [15]) of 18.5 µM (≈ 7.82 µg/mL) and an MIC (Candida albicans [16]) of 1.95 µg/mL. It also gave an MIC (Aspergillus nidulans [17]) of 7.8 µg/mL, an MIC (Candida albicans [18]) of 4.6 µM (≈ 1.94 µg/mL) and an MIC (Nakaseomyces glabratus [19]) of 4.6 µM (≈ 1.94 µg/mL). It also gave an MIC (Aspergillus flavus) of 18.5 µM (≈ 7.82 µg/mL), an MIC (Candida parapsilosis [20]) of 0.57 µM (≈ 0.241 µg/mL) and an MIC (Candida albicans [21]) of 9.2 µM (≈ 3.89 µg/mL). The MIC (Pichia kudriavzevii) was 2.3 µM (≈ 0.972 µg/mL), the MIC (Cryptococcus neoformans [22]) was 0.57 µM (≈ 0.241 µg/mL) and the MIC (Candida parapsilosis [23]) was 0.28 µM (≈ 0.118 µg/mL). The viability at 24 h, 3.9 ug/ml [24] was > 50%, the Ratio (Aspergillus nidulans [25]) was 4 and the hemolysis at 1 h, 31.3 ug/ml [26] was 100%. The hemolysis at 1 h, 1.95 ug/ml [27] was 2%, the hemolysis at 1 h, 0.975 ug/ml [28] was 2% and the hemolysis at 1 h, 15.6 ug/ml [28] was 86%. The MIC (Nakaseomyces glabratus [29]) was 2.3 µM (≈ 0.972 µg/mL), the Activity (Candida albicans [30]) was “Active” and the Activity (Candida albicans [31]) was 36.6%. The Activity (A549) was “Non-Toxic”, the Ratio (Candida albicans [32]) was 2 and the hemolysis at 1 h, 7.8 ug/ml [33] was 21%. For the same compound, the Activity (Candida albicans [34]) was 4.69%.
